# In patent EP0745595A1, “3-(3-Aryloxyphenyl)-1-(substituted methyl)-s-triazine-2,4,6-oxo or thiotrione herbicidal agents” (American Cyanamid Company, priority 1995, dated 1996):
# Legend:
# Type in all cases: in vivo
# IPOMOEA SPP. = assay: Postemergence herbicidal evaluation, IPOSS (Morningglory spp.);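 also: higher means more injury with 8 approaching complete kill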
# In short: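 In this greenhouse postemergence herbicide test on Ipomoea spp. (morningglory), compounds in 50/50 acetone/water with 0.5% TWEEN®20 were sprayed at 40 psi onto seedlings about two weeks old grown in jiffy flats. After four to five weeks, injury was scored on a 0-9 scale covering stand, vigor, malformation, size, chlorosis and overall appearance versus control, with repeat tests averaged.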
# [1] = system: ORYZA SATIVA, L. TEBONNET; assay: Rice tolerance to post-transplant applications under flooded paddy conditions, ORYSAT (Rice, Tebonnet); conditions: post-transplanted rice
# In short: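 Rated on a visual 0–9 scale against untreated plants 3–4 weeks after application, rice (cv. Tebonnet) tolerance was tested by applying compounds (approx. 0.5–0.063 kg/ha, acetone/water 50/50) to flooded soil three days post-transplant, water kept 1.5–3 cm deep.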
# [2] = system: ECHINOCHLOA CRUS-GALLI, (L) BEAU; assay: Postemergence herbicidal evaluation, ECHCG (Barnyardgrass); set-up: key to ECHCG rating / Herbicidal effect rating, ECHCG / ECHCG: 0-9 visual rating scale vs untreated control
# In short: (§1)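 Application to seedlings around two weeks old: test compound in 50/50 acetone/water, 0.5% TWEEN 20, sprayed at 40 psi for roughly 0.125–0.500 kg/ha. Evaluation: 0–9 visual scale after 4–5 weeks, replicates averaged.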
# [3] = system: ABUTILON THEOPHRASTI, MEDIC.; assay: Postemergence herbicidal evaluation, ABUTH (Velvetleaf);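 also: higher means more injury with 8 approaching complete kill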
# In short: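 This postemergence herbicide test used two-week-old velvetleaf seedlings grown in jiffy flats. Each compound was sprayed at 40 psi as a dispersion in 50/50 acetone/water with 0.5% TWEEN®20 surfactant. Plants then received routine greenhouse care. After four to five weeks, injury was scored visually on a 0-9 scale against a control, and replicate tests were averaged.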
# GALIUM APARINE = assay: Postemergence herbicidal evaluation, GALAP (Galium); set-up: key to GALAP rating / Herbicidal effect rating, GALAP / GALAP: 0-9 visual rating scale vs untreated control;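 also: higher means more injury with 8 approaching complete kill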
# In short: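 In this postemergence greenhouse test, two-week-old Galium aparine seedlings grown in jiffy flats received a 40 psi spray of compound in acetone/water (50/50) with 0.5% TWEEN®20 surfactant. After four to five weeks, stand, vigor, malformation, size, chlorosis and overall appearance were compared with untreated controls on a 0-9 scale, averaging multiple tests.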
# [4] = system: AMBROSIA ARTEMISIIFOLIA, L.; assay: Postemergence herbicidal evaluation, AMBEL (Ragweed, Common);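 also: higher means more injury with 8 approaching complete kill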
# In short: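 Postemergence herbicidal activity on AMBEL (common ragweed) was assessed on two-week-old seedlings grown in jiffy flats. Treatment solutions of 50/50 acetone/water with 0.5% TWEEN®20 surfactant were sprayed at 40 psi. After four to five weeks in the greenhouse, plants were scored 0-9 against a control for stand, vigor, malformation, size, chlorosis and overall appearance, with multiple tests averaged.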
# [5] = system: SETARIA VIRIDIS, (L) BEAU; assay: Postemergence herbicidal evaluation, SETVI (Foxtail, Green); set-up: key to SETVI rating / Herbicidal effect rating, SETVI / SETVI: 0-9 visual rating scale vs untreated control
# In short: as §1
# [6] = system: TRITICUM AESTIVUM, CV. APOLLO; assay: Postemergence herbicidal evaluation, TRZAWO (Wheat, Winter, CV. APOLLO);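 also: higher means more injury with 8 approaching complete kill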
# In short: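 This greenhouse postemergence test applied compounds to roughly two-week-old wheat seedlings grown in jiffy flats. The spray solution was 50/50 acetone/water with 0.5% TWEEN®20, a polyoxyethylene sorbitan monolaurate, sprayed from a nozzle run at 40 psi. After four to five weeks of standard greenhouse care, injury was scored from 0 to 9 by comparing stand, vigor, malformation, size, chlorosis and overall appearance with a control. Multiple tests were averaged.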
# ZEA MAYS L. = assay: Postemergence herbicidal evaluation, ZEAMX (Corn, Field);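 also: higher means more injury with 8 approaching complete kill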
# In short: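 This greenhouse postemergence test treated corn plants about two weeks old. Compounds in a 50/50 acetone/water mixture with 0.5% TWEEN®20 were applied through a spray nozzle at 40 psi. After four to five weeks, injury was scored 0-9 against an untreated control, judging stand, vigor, malformation, size, chlorosis and overall appearance. Repeated tests were averaged.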
# CASSIA OBTUSIFOLIA, L. = assay: Postemergence herbicidal evaluation, CASOB (Sicklepod); set-up: key to CASOB rating / Herbicidal effect rating, CASOB / CASOB: 0-9 visual rating scale vs untreated control;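 also: higher means more injury with 8 approaching complete kill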
# In short: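 Ratings (0-9) reflect visual stand, vigor, malformation, size and chlorosis compared with untreated plants, assessed 4-5 weeks after postemergence spraying. Treatment was applied to roughly two-week-old seedlings at about 0.125-0.500 kg/ha in acetone/water with 0.5% Tween 20; replicate tests were averaged.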
# CHENOPODIUM ALBUM, L. = assay: Postemergence herbicidal evaluation, CHEAL (Lambsquarters, Common);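 also: higher means more injury with 8 approaching complete kill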
# In short: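 Postemergence herbicidal activity on Chenopodium album was tested by spraying two-week-old seedlings grown in jiffy flats with compound in acetone/water (50/50) plus 0.5% TWEEN®20, using a 40 psi nozzle. Four to five weeks after treatment, stand, vigor, malformation, size, chlorosis and overall appearance were scored 0-9 relative to controls, with repeat tests averaged.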
compound,measurement,setting,value
"Cn1c(=O)[nH]c(=O)n(-c2cccc(Oc3ccc(C(F)(F)F)cc3Cl)c2)c1=O [E, reference compound]",IPOSS,IPOMOEA SPP.; Rate 0.063 kg/ha,5.0
same,IPOSS,IPOMOEA SPP.; Rate 0.125 kg/ha,5.0
same,IPOSS,IPOMOEA SPP.; Rate 0.250 kg/ha,5.0
same,IPOSS,IPOMOEA SPP.; Rate 0.500 kg/ha,6.0
same,ORYSAT,[1]; Rate 0.250 kg/ha,0.0
same,ORYSAT,[1]; Rate 0.500 kg/ha,0.0
same,ORYSAT,[1]; Rate 1.000 kg/ha,0.0
same,ECHCG,[2]; Rate 0.063 kg/ha,0.0
same,ECHCG,[2]; Rate 0.125 kg/ha,0.0
same,ECHCG,[2]; Rate 0.250 kg/ha,1.0
same,ECHCG,[2]; Rate 0.500 kg/ha,3.0
same,ABUTH,[3]; Rate 0.063 kg/ha,4.0
same,ABUTH,[3]; Rate 0.125 kg/ha,5.0
same,ABUTH,[3]; Rate 0.250 kg/ha,5.0
same,ABUTH,[3]; Rate 0.500 kg/ha,6.0
same,GALAP,GALIUM APARINE; Rate 0.063 kg/ha,3.0
same,GALAP,GALIUM APARINE; Rate 0.125 kg/ha,4.0
same,GALAP,GALIUM APARINE; Rate 0.250 kg/ha,5.0
same,GALAP,GALIUM APARINE; Rate 0.500 kg/ha,2.5
same,AMBEL,[4]; Rate 0.063 kg/ha,2.0
same,AMBEL,[4]; Rate 0.125 kg/ha,2.0
same,AMBEL,[4]; Rate 0.250 kg/ha,4.0
same,AMBEL,[4]; Rate 0.500 kg/ha,5.0
same,SETVI,[5]; Rate 0.063 kg/ha,0.0
same,SETVI,[5]; Rate 0.125 kg/ha,0.0
same,SETVI,[5]; Rate 0.250 kg/ha,1.0
same,SETVI,[5]; Rate 0.500 kg/ha,2.0
same,TRZAWO,[6]; Rate 0.063 kg/ha,1.0
same,TRZAWO,[6]; Rate 0.125 kg/ha,1.0
same,TRZAWO,[6]; Rate 0.250 kg/ha,1.0
same,TRZAWO,[6]; Rate 0.500 kg/ha,1.5
same,ZEAMX,ZEA MAYS L.; Rate 0.063 kg/ha,1.5
same,ZEAMX,ZEA MAYS L.; Rate 0.125 kg/ha,1.5
same,ZEAMX,ZEA MAYS L.; Rate 0.250 kg/ha,1.5
same,ZEAMX,ZEA MAYS L.; Rate 0.500 kg/ha,2.5
same,CASOB,"CASSIA OBTUSIFOLIA, L.; Rate 0.063 kg/ha",2.0
same,CASOB,"CASSIA OBTUSIFOLIA, L.; Rate 0.125 kg/ha",3.0
same,CASOB,"CASSIA OBTUSIFOLIA, L.; Rate 0.250 kg/ha",5.0
same,CASOB,"CASSIA OBTUSIFOLIA, L.; Rate 0.500 kg/ha",2.0
same,CHEAL,"CHENOPODIUM ALBUM, L.; Rate 0.063 kg/ha",7.0
same,CHEAL,"CHENOPODIUM ALBUM, L.; Rate 0.125 kg/ha",7.0
same,CHEAL,"CHENOPODIUM ALBUM, L.; Rate 0.250 kg/ha",8.0
same,CHEAL,"CHENOPODIUM ALBUM, L.; Rate 0.500 kg/ha",8.0
"Cn1c(=O)[nH]c(=O)n(-c2cc(Oc3ccc(C(F)(F)F)cc3Cl)ccc2Cl)c1=O [F, reference compound]",IPOSS,IPOMOEA SPP.; Rate 0.016 kg/ha,3.0
same,IPOSS,IPOMOEA SPP.; Rate 0.032 kg/ha,4.0
same,IPOSS,IPOMOEA SPP.; Rate 0.063 kg/ha,6.0
same,IPOSS,IPOMOEA SPP.; Rate 0.125 kg/ha,5.0
same,IPOSS,IPOMOEA SPP.; Rate 0.250 kg/ha,6.0
same,IPOSS,IPOMOEA SPP.; Rate 0.500 kg/ha,7.0
same,ORYSAT,[1]; Rate 0.031 kg/ha,0.0
same,ORYSAT,[1]; Rate 0.063 kg/ha,0.0
same,ORYSAT,[1]; Rate 0.125 kg/ha,1.0
same,ORYSAT,[1]; Rate 0.250 kg/ha,2.0
same,ECHCG,[2]; Rate 0.016 kg/ha,0.0
same,ECHCG,[2]; Rate 0.032 kg/ha,0.0
same,ECHCG,[2]; Rate 0.063 kg/ha,0.0
same,ECHCG,[2]; Rate 0.125 kg/ha,1.0
same,ECHCG,[2]; Rate 0.250 kg/ha,2.0
same,ECHCG,[2]; Rate 0.500 kg/ha,2.0
same,ABUTH,[3]; Rate 0.016 kg/ha,4.0
same,ABUTH,[3]; Rate 0.032 kg/ha,4.0
same,ABUTH,[3]; Rate 0.063 kg/ha,5.0
same,ABUTH,[3]; Rate 0.125 kg/ha,5.0
same,ABUTH,[3]; Rate 0.250 kg/ha,7.0
same,ABUTH,[3]; Rate 0.500 kg/ha,9.0
same,GALAP,GALIUM APARINE; Rate 0.016 kg/ha,5.0
same,GALAP,GALIUM APARINE; Rate 0.032 kg/ha,6.0
same,GALAP,GALIUM APARINE; Rate 0.063 kg/ha,6.0
same,GALAP,GALIUM APARINE; Rate 0.125 kg/ha,6.0
same,GALAP,GALIUM APARINE; Rate 0.250 kg/ha,8.0
same,GALAP,GALIUM APARINE; Rate 0.500 kg/ha,6.0
same,AMBEL,[4]; Rate 0.016 kg/ha,2.0
same,AMBEL,[4]; Rate 0.032 kg/ha,3.0
same,AMBEL,[4]; Rate 0.063 kg/ha,6.0
same,AMBEL,[4]; Rate 0.125 kg/ha,6.0
same,AMBEL,[4]; Rate 0.250 kg/ha,6.0
same,AMBEL,[4]; Rate 0.500 kg/ha,7.0
same,SETVI,[5]; Rate 0.016 kg/ha,0.0
same,SETVI,[5]; Rate 0.032 kg/ha,1.0
same,SETVI,[5]; Rate 0.063 kg/ha,3.0
same,SETVI,[5]; Rate 0.125 kg/ha,2.0
same,SETVI,[5]; Rate 0.250 kg/ha,3.0
same,SETVI,[5]; Rate 0.500 kg/ha,3.0
same,TRZAWO,[6]; Rate 0.016 kg/ha,1.5
same,TRZAWO,[6]; Rate 0.032 kg/ha,1.5
same,TRZAWO,[6]; Rate 0.063 kg/ha,2.5
same,TRZAWO,[6]; Rate 0.125 kg/ha,3.0
same,TRZAWO,[6]; Rate 0.250 kg/ha,3.5
same,TRZAWO,[6]; Rate 0.500 kg/ha,3.5
same,ZEAMX,ZEA MAYS L.; Rate 0.016 kg/ha,1.5
same,ZEAMX,ZEA MAYS L.; Rate 0.032 kg/ha,2.0
same,ZEAMX,ZEA MAYS L.; Rate 0.063 kg/ha,2.5
same,ZEAMX,ZEA MAYS L.; Rate 0.125 kg/ha,3.0
same,ZEAMX,ZEA MAYS L.; Rate 0.250 kg/ha,4.0
same,ZEAMX,ZEA MAYS L.; Rate 0.500 kg/ha,4.0
same,CASOB,"CASSIA OBTUSIFOLIA, L.; Rate 0.016 kg/ha",2.0
same,CASOB,"CASSIA OBTUSIFOLIA, L.; Rate 0.032 kg/ha",4.0
same,CASOB,"CASSIA OBTUSIFOLIA, L.; Rate 0.063 kg/ha",5.0
same,CASOB,"CASSIA OBTUSIFOLIA, L.; Rate 0.125 kg/ha",8.0
same,CASOB,"CASSIA OBTUSIFOLIA, L.; Rate 0.250 kg/ha",9.0
same,CASOB,"CASSIA OBTUSIFOLIA, L.; Rate 0.500 kg/ha",6.5
same,CHEAL,"CHENOPODIUM ALBUM, L.; Rate 0.016 kg/ha",4.0
same,CHEAL,"CHENOPODIUM ALBUM, L.; Rate 0.032 kg/ha",5.0
same,CHEAL,"CHENOPODIUM ALBUM, L.; Rate 0.063 kg/ha",6.0
same,CHEAL,"CHENOPODIUM ALBUM, L.; Rate 0.125 kg/ha",8.0
same,CHEAL,"CHENOPODIUM ALBUM, L.; Rate 0.250 kg/ha",9.0
same,CHEAL,"CHENOPODIUM ALBUM, L.; Rate 0.500 kg/ha",9.0
